The IC50 is the midpoint of a concentration-inhibition curve. Low readings indicate higher potency, high ones lower potency.

For this test, the target named is Growth factor receptor-bound protein 2 (Homo sapiens, UniProt P62993). Nature of the test: Inhibitory concentration against Growth factor receptor bound protein 2 in MDA-MB-453 cells. The format is cell-based.
Growth factor receptor-bound protein 2, sequence (P62993 whole entry): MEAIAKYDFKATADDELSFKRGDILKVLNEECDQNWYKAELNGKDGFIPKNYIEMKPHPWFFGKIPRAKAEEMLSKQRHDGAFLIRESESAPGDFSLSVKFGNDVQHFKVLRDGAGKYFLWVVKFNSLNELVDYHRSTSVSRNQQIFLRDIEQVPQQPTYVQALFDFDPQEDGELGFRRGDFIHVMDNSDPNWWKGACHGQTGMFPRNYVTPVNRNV

For the molecule `NC(Cc1ccc(OCC(=O)O)cc1)C(=O)O` (stereo not given), it took 2.5 µM to reach half-maximal inhibition (IC50).

In turn, `CC(=O)N[C@H](Cc1ccc(OP(=O)(O)O)cc1)C(=O)NC1(C(=O)N[C@@H](CC(N)=O)C(=O)NCCCc2cccc3ccccc23)CCCCC1` yielded an IC50 of 0.007 µM.

Take `NC(=O)C[C@H](NC(=O)C1(NC(=O)[C@@H](Cc2ccc(C(F)(F)C(=O)O)cc2)NC(=O)C(=O)O)CCCCC1)C(=O)NCCCc1cccc2ccccc12`: the IC50 was 2 µM.

`CC(=O)N[C@H](Cc1ccc(OCC(=O)O)cc1)C(=O)NC1(C(=O)N[C@@H](CC(N)=O)C(=O)NCCCc2cccc3ccccc23)CCCCC1` gave an IC50 of 65 µM.

Molecule `CC(=O)N[C@H](Cc1ccc(CC(=O)O)cc1)C(=O)NC1(C(=O)N[C@@H](CC(N)=O)C(=O)NCCCc2cccc3ccccc23)CCCCC1` gave an IC50 of 2.5 µM.

As for `NC(=O)C[C@H](NC(=O)C1(NC(=O)[C@@H](Cc2ccc(CC(=O)O)cc2)NC(=O)C(=O)O)CCCCC1)C(=O)NCCCc1cccc2ccccc12`, half-maximal inhibition (IC50) was put at 0.6 µM.

`NC(Cc1ccc(C(F)(F)C(=O)O)cc1)C(=O)O` (stereo not given): the IC50 came out at 28 µM.

Consider `CC(=O)N[C@H](Cc1ccc(C(F)(F)C(=O)O)cc1)C(=O)NC1(C(=O)N[C@@H](CC(N)=O)C(=O)NCCCc2cccc3ccccc23)CCCCC1`, for which the IC50 was 28 µM.

For `NC(=O)C[C@H](NC(=O)C1(NC(=O)[C@@H](Cc2ccc(OCC(=O)O)cc2)NC(=O)C(=O)O)CCCCC1)C(=O)NCCCc1cccc2ccccc12`, it took 15 µM to reach half-maximal inhibition (IC50).

`NC(Cc1ccc(CC(=O)O)cc1)C(=O)O` (stereo not given) registered an IC50 of 65 µM.

For the origin of these results see ChEMBL document CHEMBL1131919, “Monocarboxylic-based phosphotyrosyl mimetics in the design of GRB2 SH2 domain inhibitors” (Bioorg Med Chem Lett, 1999).
